Data on 30 compounds can be found in patent publication US20230075856A1, “CYCLIC SULFAMIDE COMPOUNDS FOR TREATMENT OF HBV” (Assembly Biosciences, Inc., priority 2018, published 2023).

Some results are limits rather than exact numbers.

One test deals with HBV viral load production from HepAD38 cells. The test is described as follows: Viral production from HepAD38 cells: viral load in supernatant by qPCR of the HBV core sequence. The class given is cell-based. Conditions: 5 days incubation, qPCR of supernatant HBV DNA vs DMSO control, read-out: viral load lowering EC50 (Activity). The protocol: Assay Measuring Activity of Test Compounds on Viral Production from HepAD38 Cells
HepAD38 cells grown in a T-150 flask (Corning, cat #: 430825) with Growth Medium (DMEM/F12 […] (Hyclone, cat #: SH30023.02), 1× Pen/Strep (Invitrogen, cat #: 15140-122), 10% FBS (Tissue Culture Biologics, cat #: 101), […] G418 (Alfa Aesar, cat #: J62671), 1 μg/mL Tetracycline (Teknova, cat #: T3320)) were detached with 0.25% trypsin-EDTA (Invitrogen, cat #: 25200-056). Tetracycline-free treatment medium (15 mL DMEM/F12 (1:1) 1× Pen/step, with 2% FBS, Tet-system approved (Clontech, cat #: 631106) were then added to mix, transferred into a 50 ml conical tube (Falcon, cat #: 21008-918,) and spun at 1300 rpm for 5 min. Pelleted cells were then re-suspended/washed with 50 mL of 1×DPBS (Invitrogen, cat #: 14190-136) 2 times and 50 mL treatment medium twice. HepAD38 cells were then re-suspended with 10 mL of treatment medium, syringed and counted. Wells of 96-well clear bottom TC plate (Corning, cat #: 3904,) were seeded at 50,000 cells/well in 180 μL of treatment medium, and 20 μL of either 10% DMSO (Sigma, cat #: D4540) as controls or a 10× solution of test compounds in 10% DMSO in treatment media was added for a final compound concentration starting at 10 μM, and plates were incubated in 5% CO2 incubator at 37° C. for 5 days.
Subsequently viral load production was assayed by quantitative PCR (qPCR) of the HBV core sequence. PCR reaction mixture containing forward primers HBV-f 5′-CTGTGCCTTGGGTGGCTIT-3′ (IDT DNA), Reverse primers HBV-r 5′-[…]-3′ (IDT DNA), Fluorescent TaqMan™ Probes HBV-probe 5′-FAM/AGCTCCAAA/ZEN/[…]/3IABkFQ-3′ (IDT DNA), 10 μL/well of PerfeCTa® qPCR ToughMix® (Quanta Biosciences, Cat #: 95114-05K), and 6 μL/well of DEPC water (Alfa Aesar, cat #: J62087) was prepared. Four μL of supernatant was added to 16 μL of the reaction mixture in a qPCR plate (Applied Biosytems, Cat #: 4309849), sealed with a film (Applied Biosystems, Cat #: 4311971), centrifuged for a few seconds, and subsequently run on an Applied Biosystems VIIA7. The PCR mixture was incubated at 45° C. for 5 min, then 95° C. for 10 min, followed by 40 cycles of 10 seconds at 95° C. and 20 seconds at 60° C. Viral load was quantified against known HBV DNA standards by using ViiA™ 7 Software. Viral load in the supernatant from wells with treated cells were compared against viral load in supernatant from DMSO control wells (≥3 per plate). Cell viability assay was performed with CellTiter-Glo Luminescent Cell Viability Assay (Promega, cat #: G7573) with modification. Mixed appropriate amount of CellTiter-Glo (CTG) 1×DPBS in a 1:1 ratio, added 100 uL of the mixture to each well followed completely removal of all supernatant in each well without touching cell surface. Incubated the plate at room temperature for 10 min on an orbital shaker, and then read the plate with a plate reader (TECAN M1000 or Envision). EC50 or CC50 values were calculated through curve-fitting of the four-parameter nonlinear-logistic-regression model (GraphPad Prism or Dotmatics). CC50 values were all >10 μM.
Regarding `Cc1nc(-c2ccc(F)cc2)sc1CNC(=O)C1CC(C(=O)Nc2ccc(F)c(Cl)c2)N(C)S(=O)(=O)N1` (single isomer, unassigned) [1056-ISOMER-B, N3-(3-chloro-4-fluoro-phenyl)-N5-[[2-(4-fluorophenyl)-4-methyl-thiazol-5-yl]methyl]-2-methyl-1,1-dioxo-1,2,6-thiadiazinane-3,5-dicarboxamide], the half-maximal effective concentration (EC50) was less than 50 nM. Take `CN1C(C(=O)Nc2ccc(F)c(Cl)c2)CC(C(=O)NC2CCN(c3ncccn3)CC2)NS1(=O)=O` (single isomer, unassigned) [Compound 855-ISOMER-B, N3-(3-chloro-4-fluoro-phenyl)-2-methyl-1,1-dioxo-N5-(1-pyrimidin-2-yl-4-piperidyl)-1,2,6-thiadiazinane-3,5-dicarboxamide]: the EC50 was 100 to 10000 nM.

For `CCN1CCC(Oc2ccc(-c3ncc(CNC(=O)C4CC(C(=O)Nc5ccc(F)c(Cl)c5)N(C)S(=O)(=O)N4)s3)cc2)CC1` (single isomer, unassigned) [Compound 921-ISOMER-B, N3-(3-chloro-4-fluoro-phenyl)-N5-[[2-[4-[(1-ethyl-4-piperidyl)oxy]phenyl]thiazol-5-yl]methyl]-2-methyl-1,1-dioxo-1,2,6-thiadiazinane-3,5-dicarboxamide], the half-maximal effective concentration (EC50) was 50 to 100 nM. As for `CN1C(C(=O)Nc2ccc(F)c(Cl)c2)CC(C(=O)NCc2ccccc2-n2ccnc2)NS1(=O)=O` (single isomer, unassigned; isomer-a) [Compound 910-ISOMER-A, N3-(3-chloro-4-fluoro-phenyl)-N5-[(2-imidaozl-1-ylphenyl)methyl]-2-methyl-1,1-dioxo-1,2,6-thiadiazinane-3,5-dicarboxamide], the 50% effective concentration (EC50) was less than 50 nM.

The same test, now with this note: Hepatitis B virus, HePAD38, 120 h, 5 days incubation, qPCR of supernatant HBV DNA vs DMSO control, read-out: viral load lowering EC50 (Activity).
As for `Cc1c(CNC(=O)C2CC(C(=O)Nc3ccc(F)c(Cl)c3)N(C)S(=O)(=O)N2)cnn1C` (stereo not drawn) [Compound 740], the EC50 was less than 50 nM. For `CN1C(C(=O)Nc2ccc(F)c(Cl)c2)CC(C(=O)NC(c2ccccc2)c2cnc(-c3ccccc3Cl)s2)NS1(=O)=O` (single isomer, unassigned) [1068-ISOMER-A, N3-(3-chloro-4-fluoro-phenyl)-N5-[[2-(2-chlorophenyl)thiazol-5-yl]-phenyl-methyl]-2-methyl-1,1-dioxo-1,2,6-thiadiazinane-3,5-dicarboxamide], the EC50 was less than 50 nM. Same read-out and setting: the value for `CN1C(C(=O)Nc2ccc(F)c(Cl)c2)C[C@@H](C(=O)N[C@H](c2ccccc2)c2cnc(-c3ccccc3Cl)s2)NS1(=O)=O` (single isomer, unassigned) [1068-ISOMER-C] was less than 50 nM. `CN1C(C(=O)Nc2ccc(F)c(Cl)c2)CC(C(=O)NCc2cc(-c3ccccc3Cl)no2)NS1(=O)=O` (stereo not drawn) [Compound 1025]: the EC50 is less than 50 nM. Still for that read-out and setting: the value for `CN1C(C(=O)Nc2ccc(F)c(Cl)c2)CC(C(=O)NCc2ccncc2)NS1(=O)=O` (stereo not drawn) [Compound 715] was 100 to 10000 nM; that for `Cc1csc(CNC(=O)C2CC(C(=O)Nc3ccc(F)c(Cl)c3)N(C)S(=O)(=O)N2)n1` (stereo not drawn) [Compound 686] was 50 to 100 nM. On the same count and under the same terms, the value for `CN1C(C(=O)Nc2ccc(F)c(C#N)c2)CC(C(=O)NCc2cnc(-c3ccccc3)s2)NS1(=O)=O` (stereo not drawn) [Compound 830] was 50 to 100 nM. Consider `CN1C(C(=O)Nc2ccc(F)c(Cl)c2)CC(C(=O)NC2CCN(C(=O)OC(C)(C)C)C2)NS1(=O)=O` (stereo not drawn) [Compound 1081], for which the concentration for a half-maximal effect (EC50) lay in the range of 100 to 10000 nM. Same read-out and setting: the value for `Cc1nc(-c2ccc(F)cc2F)sc1CNC(=O)C1CC(C(=O)Nc2ccc(F)c(Cl)c2)N(C)S(=O)(=O)N1` (stereo not drawn) [Compound 1083] was less than 50 nM; that for `CN1C(C(=O)Nc2ccc(F)c(Cl)c2)CC(C(=O)NC(c2ccccc2)c2cnc(-c3ccccc3)s2)NS1(=O)=O` (stereo not drawn) [Compound 1067] was less than 50 nM. Still for that read-out and setting: for `Cc1ncc(CNC(=O)C2CC(C(=O)Nc3ccc(F)c(Cl)c3)N(CC(F)(F)F)S(=O)(=O)N2)s1` (single isomer, unassigned) [Compound 891-ISOMER-A, N3-(3-chloro-4-fluoro-phenyl)-N5-[(2-methylthiazol-5-yl)methyl]-1,1-dioxo-2-(2,2,2-trifluoroethyl)-1,2,6-thiadiazinane-3,5-dicarboxamide] the value was 100 to 10000 nM; for `CN1C(C(=O)Nc2ccc(F)c(Cl)c2)CC(C(=O)NCc2nc3ccccc3s2)NS1(=O)=O` (stereo not drawn) [Compound 689], less than 50 nM; for `CN1C(C(=O)Nc2ccc(F)c(Cl)c2)CC(C(=O)NCc2cnc(-c3ccc(O)cc3)s2)NS1(=O)=O` (single isomer, unassigned) [Compound 924-ISOMER-B, N3-(3-chloro-4-fluoro-phenyl)-N5-[[2-(4-hydroxyphenyl)thiazol-5-yl]methyl]-2-methyl-1,1-dioxo-1,2,6-thiadiazinane-3,5-dicarboxamide], less than 50 nM.

As to `CCc1nc(CNC(=O)C2CC(C(=O)Nc3ccc(F)c(Cl)c3)N(C)S(=O)(=O)N2)cs1` (single isomer, unassigned) [Compound 742-ISOMER-A, N3-(3-chloro-4-fluoro-phenyl)-N5-[(2-ethylthiazol-4-yl)methyl]-2-methyl-1,1-dioxo-1,2,6-thiadiazinane-3,5-dicarboxamide], the concentration for a half-maximal effect (EC50) lay within 100 to 10000 nM. Regarding `Cc1cn(-c2ccc(F)cc2)nc1CNC(=O)C1CC(C(=O)Nc2ccc(F)c(Cl)c2)N(C)S(=O)(=O)N1` (stereo not drawn) [Compound 1141], the half-maximal effective concentration (EC50) is less than 50 nM. The same measure, in the same setting: the value for `CCc1nc(CNC(=O)C2CC(C(=O)Nc3ccc(F)c(Cl)c3)N(C)S(=O)(=O)N2)cs1` (stereo not drawn) [Compound 742] was 50 to 100 nM.

For `CN1C(C(=O)Nc2ccc(F)c(Cl)c2)CC(C(=O)NCc2cccc(C(F)(F)F)c2)NS1(=O)=O` (stereo not drawn) [Compound 724], the EC50 lay in the range of 50 to 100 nM.

In the case of `CN1C(C(=O)Nc2ccc(F)c(Cl)c2)CC(C(=O)NCc2cnc(-c3ccc(C(F)(F)F)cc3)s2)NS1(=O)=O` (stereo not drawn) [Compound 915], the concentration for a half-maximal effect (EC50) lay in the range of 100 to 10000 nM. Consider `Cc1nc(-c2ccccc2Cl)sc1[C@@H](NC(=O)C1CC(C(=O)Nc2ccc(F)c(Cl)c2)N(C)S(=O)(=O)N1)c1ccccc1` (single isomer, unassigned) [1100-ISOMER-B], for which the half-maximal effective concentration (EC50) lay in the range of 100 to 10000 nM. On to `Cc1nc(-c2ccccc2F)sc1CN(C(=O)C1CC(C(N)=O)NS(=O)(=O)N1C)c1ccc(F)c(Cl)c1` (single isomer, unassigned) [1016-ISOMER-A, N3-(3-chloro-4-fluoro-phenyl)-N-[[2-(2-fluorophenyl)-4-methyl-thiazol-5-yl]methyl]-2-methyl-1,1-dioxo-1,2,6-thiadiazinane-3,5-dicarboxamide], for which the EC50 was less than 50 nM.

Consider `CN1C(C(=O)Nc2ccc(F)c(Cl)c2)CC(C(=O)NCc2ncc(-c3ccc(F)cc3)s2)NS1(=O)=O` (stereo not drawn) [Compound 1153], for which the concentration for a half-maximal effect (EC50) was less than 50 nM.

`CN1C(C(=O)Nc2ccc(F)c(Cl)c2)CC(C(=O)NCc2cnc(-c3cccnc3)s2)NS1(=O)=O` (stereo not drawn) [Compound 911]: the half-maximal effective concentration (EC50) lay in the range of 50 to 100 nM. On the same count and under the same terms, for `CN1C(C(=O)Nc2ccc(F)c(Cl)c2)CC(C(=O)NCc2ccn(-c3ccccc3)n2)NS1(=O)=O` (stereo not drawn) [Compound 991] the value was less than 50 nM; for `CN1C(C(=O)Nc2ccc(F)c(Cl)c2)CC(C(=O)NC(c2ccccc2)c2cnc(Cl)s2)NS1(=O)=O` (stereo not drawn) [Compound 1066], less than 50 nM; for `Cc1cnn(-c2ccccc2)c1CNC(=O)C1CC(C(=O)Nc2ccc(F)c(Cl)c2)N(C)S(=O)(=O)N1` (stereo not drawn) [Compound 1104], less than 50 nM. On the same count and under the same terms, for `Cc1ccccc1-c1nc(C)c(CNC(=O)C2CC(C(=O)Nc3ccc(F)c(Cl)c3)N(C)S(=O)(=O)N2)s1` (stereo not drawn) [Compound 1017] the value was less than 50 nM.
